EC50 data for 40 compounds are collected here from US20050075375A1 (priority 2003, published 2005).

The assay deals with monocistronic NK5.1 HCV replicon in Huh7 cells. As to the kind of experiment: HCV replicon assay, monocistronic replicon cell line. Type of assay: cell-based, hepatitis C virus. The note with it: Hepatitis C virus, Huh-7, 72 h; Table 1; monocistronic replicon in Huh7 cells, 3 days incubation, HCV RNA/GAPDH RNA by TaqMan RT-PCR; read-out: Mono EC50 Median. The source says:
HCV Replicon Assays (Replicon EC50 (μM))
HCV replication can be measured by a replicon assay such as described by Vrolijk et al, J. Virol. Methods 110:201(2003), which is hereby incorporated in its entirety by reference. The method was implemented as follows.
Monocistronic Replicon Cell Line:
Human hepatocyte Huh7 cells containing the monocistronic NK5.1 replicon were obtained from Ralf Bartenschlager at the University of Mainz, Germany. These cells were maintained under hygromycin selection and passaged when 80-90% confluent.
This cell line contains an autonomously replicating RNA element (replicon) incorporating the non-structural HCV elements necessary for replication, and upon which the survival of the replicon in the cell depends. This replicon contains a single internal ribosome entry site (HCV IRES). Inhibition of any of the critical HCV finctions by a compound leads to loss of the replicon as measured by HCV replicon RNA copy number reduction. The amount of HCV RNA present following a standard incubation with a compound is a measure of the anti-HCV activity of the compound. The assay was conducted by preparing sufficient 96-well plates containing these cells, wherein cells are seeded at 6000 cells/well in a 96-well plate, in 200 μl of final media volume. Cells were then incubated for 24 hours at 37 C., 5% CO2, and 95% humidity before compound was added. Six point half-log concentration response assays were conducted to determine potency/EC50 of Formula I compounds to inhibit HCV replicon replication. The final percent DMSO acceptable in this assay system is 0.6%. Compounds were diluted in media in an appropriate format and 5 μl of each drug dilution is added to each well. Cells were then incubated with compounds for 3 days at 37 C., 5% CO2, and 95% humidity. Following the three day incubation period, plates were washed twice with phosphate buffered saline to remove media and cells were lysed with Qiagen extraction buffer. RNA was extracted and isolated with the Qiagen RNAeasy kit according to the manufacturer's protocol (Qiagen). TaqMan One-Step RT-PCR was used in conjunction with an ABI 7700 Sequence Detector (Applied Biosystems) for the quantitation and analysis of HCV replicon RNA copy number. A GAPDH probe was used for internal normalization. The ratio of HCV RNA to cellular GAPDH RNA was determined and compared to the DMSO-only treated control, and the ratio of HCV RNA/GAPDH RNA was used for an EC50 determination and as a measure of specificity for inhibition of the HCV replicon.
(A replicon is a self-replicating genome or part of one, used to study replication in cells.)

As a reminder, the EC50 is the concentration giving half of the maximal effect. Turning to `Cc1cc(-c2c(O)ccc3ccccc23)nn1-c1ccccc1[N+](=O)[O-]` [Compound 1, 1-[5-Methyl-1-(2-nitro-phenyl)-1 H-pyrazol-3-yl]-naphthalen-2-ol], the half-maximal effective concentration (EC50) was over 32 µM.

Consider `Cc1cc(-c2ccccc2O)nn1-c1ccccc1[N+](=O)[O-]` [Compound 2, 2-[5-Methyl-1-(2-nitro-phenyl)-1H-pyrazol-3-yl]-phenol], for which the EC50 is over 32 µM.

As to `Cc1cc(-c2ccccc2O)n(-c2ccccc2[N+](=O)[O-])n1` [Compound 3, 2-[5-Methyl-2-(2-nitro-phenyl)-2H-pyrazol-3-yl]-phenol], the EC50 worked out at 31 µM.

On to `Cc1cc(-c2c(O)ccc3ccccc23)nn1-c1ccccc1` [Compound 4, 1-(5-Methyl-1-phenyl-1H-pyrazol-3-yl)-naphthalen-2-ol], for which the EC50 was over 19 µM.

With `Cc1cc(-c2c(O)ccc3ccccc23)nn1-c1ccccc1C(F)(F)F` [Compound 5, 1-[5-Methyl-1-(2-trifluoromethyl-phenyl)-1H-pyrazol-3-yl]-naphthalen-2-ol], the EC50 is over 19 µM.

As to `Cc1cc(-c2c(O)ccc3ccccc23)n(-c2ccccc2C(F)(F)F)n1` [Compound 6, 1-[5-Methyl-2-(2-trifluoromethyl-phenyl)-2H-pyrazol-3-yl]-naphthalen-2-ol], the EC50 amounted to 13 µM.

With `Cc1cc(-c2ccccc2O)nn1-c1ccccc1C(F)(F)F` [Compound 7, 2-[5-Methyl-i-(2-trifluoromethyl-phenyl)-1H-pyrazol-3-yl]-phenol], the EC50 turned out to be 20 µM.

As to `COc1ccc(-n2nc(-c3c(O)ccc4ccccc34)cc2C)cc1` [Compound 8], the EC50 is over 19 µM.

With `Cc1cc(-c2ccc3ccccc3c2O)n(-c2ccccn2)n1` [Compound 9, 2-(5-Methyl-2-pyridin-2-yl-2H-pyrazol-3-yl)-naphthalen-1-ol], the EC50 is over 19 µM.

In the case of `Cc1cc(-c2cc(C)c(C)cc2O)n(-c2ccccc2C)n1` [Compound 10, 4,5-Dimethyl-2-(5-methyl-2-o-tolyl-2H-pyrazol-3-yl)-phenol], the EC50 was over 19 µM.

`Cc1cc(-c2ccccc2O)nn1-c1ccccc1` [Compound 11, 2-(5-Methyl-1-phenyl-1H-pyrazol-3-yl)-phenol]: the EC50 stood at 9 µM.

Take `Cc1cc(-c2ccc3ccccc3c2O)nn1-c1ccccc1[N+](=O)[O-]` [Compound 12, 2-[5-Methyl-1-(2-nitro-phenyl)-1H-pyrazol-3-yl]-naphthalen-1-ol]: the EC50 turned out to be 13 µM.

In the case of `Cc1cc(-c2c(O)ccc3ccccc23)nn1-c1ccc(C(C)C)cc1` [Compound 13, 1-[1-(4-Isopropyl-phenyl)-5-methyl-1H-pyrazol-3-yl]-naphthalen-2-ol], the EC50 was over 19 µM.

With `COc1ccc(-n2nc(-c3ccccc3O)cc2C)cc1` [Compound 14, 2-[1-(4-Methoxy-phenyl)-5-methyl-1H-pyrazol-3-yl]-phenol], the EC50 was 11 µM.

For the compound `Cc1cc(O)c(-c2cc(C)n(-c3ccccc3F)n2)cc1C` [Compound 15, 2-[1-(2-Fluoro-phenyl)-5-methyl-1H-pyrazol-3-yl]-4,5-dimethyl-phenol], the EC50 is over 19 µM.

As for `Cc1cc(-c2ccc3ccccc3c2O)nn1-c1ccccc1C(F)(F)F` [Compound 16, 2-[5-Methyl-1-(2-trifluoromethyl-phenyl)-1H-pyrazol-3-yl]-naphthalen-1-ol], the EC50 was 17 µM.

As to `Cc1cc(O)c(-c2cc(C)n(-c3ccccc3)n2)cc1C` [Compound 17, 4,5-Dimethyl-2-(5-methyl-1-phenyl-1H-pyrazol-3-yl)-phenol], the EC50 was over 19 µM.

Consider `Cc1cc(-c2c(O)ccc3ccccc23)nn1-c1ccc(Cl)cc1` [Compound 18, 1-[1-(4-Chloro-phenyl)-5-methyl-1H-pyrazol-3-yl]-naphthalen-2-ol], for which the EC50 stood at 18 µM.

For the compound `Cc1cc(-c2ccc3ccccc3c2O)n(-c2ccc(Cl)cc2)n1` [Compound 19, 2-[2-(4-Chloro-phenyl)-5-methyl-2H-pyrazol-3-yl]-naphthalen-1-ol], the EC50 is 17 µM.

For `Cc1cc(-c2c(O)ccc3ccccc23)nn1-c1ncc(C(F)(F)F)cc1Cl` [Compound 20, 1-[1-(3-Chloro-5-trifluoromethyl-pyridin-2-yl)-5-methyl-1H-pyrazol-3-yl]-naphthalen-2-ol], the EC50 is 13 µM.

For `Cc1cc(O)c(-c2cc(C)n(-c3ccc(Cl)cc3)n2)cc1C` [Compound 22, 2-[1-(4-Chloro-phenyl)-5-methyl-1H-pyrazol-3-yl]-4,5-dimethyl-phenol], the EC50 was over 19 µM.

For `Cc1cc(O)c(-c2cc(C)n(-c3nc4ccccc4s3)n2)cc1C` [Compound 23, 2-(l-Benzothiazol-2-yl-5-methyl-1H-pyrazol-3-yl)-4,5-dimethyl-phenol], the EC50 was over 19 µM.

For the compound `Cc1cc(O)c(-c2cc(C)n(-c3ccccc3C(F)(F)F)n2)cc1C` [Compound 24, 4,5-Dimethyl-2-[5-methyl-i-(2-trifluoromethyl-phenyl)-1H-pyrazol-3-yl]-phenol], the EC50 was over 19 µM.

Take `Cc1cc(-c2c(O)ccc3ccccc23)nn1-c1ncccc1[N+](=O)[O-]` [Compound 25, 1-[5-Methyl-1-(3-nitro-pyridin-2-yl)-1H-pyrazol-3-yl]-naphthalen-2-ol]: the EC50 is over 19 µM.

`Cc1cc(-c2c(O)ccc3ccccc23)nn1-c1ncccc1C(F)(F)F` [Compound 26, 1-[5-Methyl-1-(3-trifluoromethyl-pyridin-2-yl)-1H-pyrazol-3-yl]-naphthalen-2-ol]: the 50% effective concentration (EC50) was over 19 µM.

Turning to `Cc1cc(C(F)(F)F)cc(-n2nc(-c3c(O)ccc4ccccc34)cc2C)n1` [Compound 27, 1-[5-Methyl-i-(6-methyl-4-trifluoromethyl-pyridin-2-yl)-1 H-pyrazol-3-yl]-naphthalen-2-ol], the EC50 was determined as 12 µM.

For `Cc1cc(-c2c(O)ccc3ccccc23)nn1-c1ccccn1` [Compound 28, 1-(5-Methyl-1-pyridin-2-yl-1H-pyrazol-3-yl)-naphthalen-2-ol], the EC50 was over 19 µM.

On to `Cc1cc(-c2ccc3ccccc3c2O)nn1-c1ccc(C(C)C)cc1` [Compound 29, 2-[1-(4-Isopropyl-phenyl)-5-methyl-1H-pyrazol-3-yl]-naphthalen-1-ol], for which the EC50 was over 19 µM.

On to `Cc1cc(O)c(-c2cc(C)n(-c3ccc(C(C)C)cc3)n2)cc1C` [Compound 30, 2-[1-(4-Isopropyl-phenyl)-5-methyl-1H-pyrazol-3-yl]-4,5-dimethyl-phenol], for which the EC50 amounted to 12 µM.

As for `COc1ccccc1-c1ccn(-c2ccccc2[N+](=O)[O-])n1` [Compound 31, 3-(2-Methoxy-phenyl)-1-(2-nitro-phenyl)-1H-pyrazole], the EC50 is 21 µM.

On to `COc1ccccc1-c1ccnn1-c1ccccc1[N+](=O)[O-]` [Compound 32, 5-(2-Methoxy-phenyl)-1-(2-nitro-phenyl)-1H-pyrazole], for which the half-maximal effective concentration (EC50) is 3.6 µM.

On to `Oc1ccccc1-c1ccnn1-c1ccccc1F` [Compound 35, 2-[2-(2-Fluoro-phenyl)-2H-pyrazol-3-yl]-phenol], for which the EC50 came to 14 µM.

Take `COc1ccccc1-c1ccn(-c2ncccc2[N+](=O)[O-])n1` [Compound 36, 2-[3-(2-Methoxy-phenyl)-pyrazol-1-yl]-3-nitro-pyridine]: the EC50 worked out at 2.3 µM.

With `COc1ccccc1-c1ccnn1-c1ncccc1[N+](=O)[O-]` [Compound 37, 2-[5-(2-Methoxy-phenyl)-pyrazol-1-yl]-3-nitro-pyridine], the EC50 is over 32 µM.

Consider `COc1ccccc1-c1ccn(-c2ncccc2C(F)(F)F)n1` [Compound 38, 2-[3-(2-Methoxy-phenyl)-pyrazol-1-yl]-3-trifluoromethyl-pyridine], for which the EC50 worked out at 13 µM.

For `COc1ccccc1-c1ccn(-c2ccccn2)n1` [Compound 39, 2-[3-(2-Methoxy-phenyl)-pyrazol-1-yl]-pyridine], the EC50 was over 32 µM.

Consider `COc1ccccc1-c1ccnn1-c1ccccn1` [Compound 40, 2-[5-(2-Methoxy-phenyl)-pyrazol-1-yl]-pyridine], for which the EC50 was over 32 µM.

For `O=[N+]([O-])c1cccnc1-n1ccc(-c2ccccc2O)n1` [Compound 41, 2-[1-(3-Nitro-pyridin-2-yl)-1H-pyrazol-3-yl]-phenol], the EC50 came out at 6 µM.

As for `Oc1ccccc1-c1ccn(-c2ncccc2C(F)(F)F)n1` [Compound 42, 2-[1-(3-Trifluoromethyl-pyridin-2-yl)-1H-pyrazol-3-yl]-phenol], the EC50 was determined as 6 µM.

As to `Oc1ccccc1-c1ccn(-c2ccccn2)n1` [Compound 43, 2-(1-Pyridin-2-yl-1H-pyrazol-3-yl)-phenol], the EC50 came out at 15 µM.
